From patent publication US20230250096A1, “SUBSTITUTED PHENYL-1H-PYRROLO[2,3-c] PYRIDINE DERIVATIVES” (Janssen Pharmaceutica NV, priority 2021, published 2023)
Read-outs that look alike come from different tables or passages of the source.

Columns and labels:
MOLM14 cells = test: Proliferation assay (spheroid confluence, 8 days), MOLM14; format: cell-based, human; settings: read-out: spheroid assay_MOLM14 IC50
Protocol: (§1) The anti-proliferative effect of menin/MLL protein/protein interaction inhibitor test compounds was assessed in human leukemia cell lines. The cell line MOLM14 harbors a MLL translocation and expresses the MLL fusion protein MLL-AF9, respectively, as well as the wildtype protein from the second allele. OCI-AML3 cells that carry the NPM1c gene mutation were also tested. […] KO-52 was used as a control cell line containing two MLL (KMT2A) wildtype alleles in order to exclude compounds that display general cytotoxic effects.
(§2) MOLM14 cells were cultured in RPMI-1640 (Sigma Aldrich) supplemented with 10% heat-inactivated fetal bovine serum (HyClone), 2 mM L-glutamine (Sigma Aldrich) and 50 μg/ml gentamycin (Gibco). KO-52 and OCI-AML3 cell lines were propagated in alpha-MEM (Sigma Aldrich) supplemented with 20% heat-inactivated fetal bovine serum (HyClone), 2 mM L-glutamine (Sigma Aldrich) and 50 μg/ml gentamycin (Gibco).
(§3) In order to assess the anti-proliferative effects, 200 MOLM14 cells, 200 OCI-AML3 cells or 300 KO-52 cells were seeded in 200 μl media per well in 96-well round bottom, ultra-low attachment plates (Costar, catalogue number 7007). Cell seeding numbers were chosen based on growth curves to ensure linear growth throughout the experiment. Test compounds were added at different concentrations and the DMSO content was normalized to 0.3%. Cells were incubated for 8 days at 37° C. and 5% CO2. Spheroid like growth was measured in real-time by live-cell imaging (IncuCyteZOOM, Essenbio, 4×objective) acquiring images at day 8. Confluence (%) as a measure of spheroid size was determined using an integrated analysis tool.
(§4) In order to determine the effect of the test compounds over time, the confluence in each well as a measure of spheroid size, was calculated. Confluence of the highest dose of a reference compound was used as baseline for the LC (Low control) and the confluence of DMSO treated cells was used as 0% cytotoxicity (High Control, HC).
(§5) Absolute IC50 values were calculated as percent change in confluence as follows:
(§6) LC=Low Control: cells treated with e.g. 1 μM of the cytotoxic agent staurosporin, or e.g. cells treated with a high concentration of an alternative reference compound
(§7) HC=High Control: Mean confluence (%) (DMSO treated cells)
(§8) % Effect=100−(100*(Sample−LC)/(HC−LC))
(§9) GraphPad Prism (version 7.00) was used to calculate the IC50. Dose-response equation was used for the plot of % Effect vs Log10 compound concentration with a variable slope and fixing the maximum to 100% and the minimum to 0%.

KO-52 cells = test: Proliferation assay (spheroid confluence, 8 days), KO-52 control cell line; format: cell-based, human; settings: read-out: spheroid assay_KO-52 IC50
Protocol: as §1, §2, §3, §4, §5, §6, §7, §8, §9

| SMILES | IC50 (MOLM14 cells; Homo sapiens, MOLM-14, MOLM14) | IC50 (KO-52 cells; Homo sapiens) | IC50 (MOLM14 cells; MOLM14) | IC50 (KO-52 cells) |
| --- | --- | --- | --- | --- |
| CC(=O)N1CCN(CCCC(C(C)C)N2CC[C@@H](Cc3cn(-c4ccc(F)cc4C(=O)N(C)C(C)C)c4cncc(C)c34)C2)CC1 (mixture of isomers) [Compound 8] | 11 nM | 2400 nM |  |  |
| CC(=O)N1CCN(CCCC(C(C)C)N2CC[C@H](Cc3cn(-c4ccc(F)cc4C(=O)N(C)C(C)C)c4cncc(C)c34)C2)CC1 (mixture of isomers) [Compound 9] | 13 nM | 5600 nM |  |  |
| CC(=O)N1C[C@@H]2CN([C@H]3C[C@@H](C(C(C)C)N4CC[C@H](Cc5cn(-c6ccc(F)cc6C(=O)N(C)C(C)C)c6cncc(C)c56)C4)C3)C[C@H]2C1 (mixture of isomers) [Compound 21] | < 1.8 nM | 2000 nM |  |  |
| CCC([C@H]1C[C@@H](N2CCN(C(C)=O)CC2)C1)N1CC[C@@H](Cc2cn(-c3ccc(F)cc3C(=O)N(C)C(C)C)c3cncc(C)c23)C1 (mixture of isomers) [Compound 24] | 13 nM | 8500 nM |  |  |
| Cc1cncc2c1c(C[C@@H]1CCN(CC3CCOCC3)C1)cn2-c1ccc(F)cc1S(=N)(=O)C(C)C (mixture of isomers) [Compound 78] | 111 nM | 8400 nM |  |  |
| Cc1cncc2c1c(C[C@@H]1CCN(CC3CCNC(=O)CC3)C1)cn2-c1ccc(F)cc1C(=O)N(C)C(C)C (mixture of isomers) [Compound 169] | 16 nM | 10000 nM |  |  |
| Cc1cncc2c1c(C[C@@H]1CCN(CC3CCNC(=O)C3)C1)cn2-c1ccc(F)cc1C(=O)N(C)C(C)C (mixture of isomers) [Compound 212] | 305 nM | > 15000 nM |  |  |
| COCCN(C)CCCC(C(C)C)N1CC[C@H](Cc2cn(-c3ccc(F)cc3C(=O)N(C)C(C)C)c3cncc(C)c23)C1 (single isomer, unassigned) [Compound 2] | 1 nM | > 15000 nM |  |  |
| COCCN(C)CCC[C@H](C(C)C)N1CC[C@H](Cc2cn(-c3ccc(F)cc3C(=O)N(C)C(C)C)c3cncc(Cl)c23)C1 (single isomer, unassigned) [Compound 4a] | 132 nM | 7800 nM |  |  |
| COCCN(C)CCC[C@@H](C(C)C)N1CC[C@H](Cc2cn(-c3ccc(F)cc3C(=O)N(C)C(C)C)c3cncc(Cl)c23)C1 (single isomer, unassigned) [Compound 4b] | 3 nM | 500 nM |  |  |
| CC(=O)N1CCN(CCCC(C(C)C)N2CCC(Cc3cn(-c4ccc(F)cc4C(=O)N(C)C(C)C)c4cncc(C)c34)C2)CC1 (single isomer, unassigned) [Compound 9a] | 2 nM | 600 nM |  |  |
| CC(=O)N1C[C@@H]2CN(CCC[C@H](C(C)C)N3CC[C@H](Cc4cn(-c5ccc(F)cc5C(=O)N(C)C(C)C)c5cncc(Cl)c45)C3)C[C@H]2C1 (single isomer, unassigned) [Compound 19a] | 3 nM | > 15000 nM |  |  |
| CN=S(=O)(c1cc(F)ccc1-n1cc(CC2CCN(CC3CCOCC3)C2)c2c(C)cncc21)C(C)C (single isomer, unassigned) [Compound 77d] |  |  | 197 nM | > 15000 nM |
| CN=[S@](=O)(c1cc(F)ccc1-n1cc(C[C@@H]2CCN(CC3CCN(C(C)=O)CC3)C2)c2c(C)cncc21)C(C)C (single isomer, unassigned) [Compound 128a] | 676 nM | 7700 nM |  |  |
| COC[C@H](C1CCCCO1)N1CC[C@@H](Cc2cn(-c3ccc(F)cc3C(=O)N(C)C(C)C)c3cncc(C)c23)C1 (single isomer, unassigned) [Compound 165b] | 4 nM | 1900 nM |  |  |
| Cc1cncc2c1c(C[C@@H]1CCN([C@H](C)C3CCOCC3)C1)cn2-c1ccc(F)cc1[S@](=N)(=O)C(C)C (single isomer, unassigned) [Compound 180a] | 39 nM | 7200 nM |  |  |
| Cc1cncc2c1c(C[C@H]1CCN([C@H](C)C3CCOCC3)C1)cn2-c1ccc(F)cc1[S@](=N)(=O)C(C)C (single isomer, unassigned) [Compound 181a] | 44 nM | 4100 nM |  |  |
| Cc1cncc2c1c(C[C@@H]1CCN(C[C@H]3CCOC3)C1)cn2-c1ccc(F)cc1C(=O)N(C)C(C)C (single isomer, unassigned) [Compound 190a] | 40 nM | 10000 nM |  |  |
| Cc1cncc2c1c(C[C@@H]1CCN(C[C@@H]3CCOC3)C1)cn2-c1ccc(F)cc1C(=O)N(C)C(C)C (single isomer, unassigned) [Compound 190b] | 46 nM | 4900 nM |  |  |
| Cc1cncc2c1c(CC1CN(C[C@H]3CCOC3)C1)cn2-c1ccc(F)cc1C(=O)N(C)C(C)C (single isomer, unassigned) [Compound 191a] | 7 nM | 4600 nM |  |  |

| SMILES | IC50 (MOLM14 cells; Homo sapiens, MOLM-14, MOLM14) | IC50 (KO-52 cells; Homo sapiens) | IC50 (MOLM14 cells; MOLM14) | IC50 (KO-52 cells) |
| --- | --- | --- | --- | --- |
| Cc1cncc2c1c(CC1CN(C[C@@H]3CCOC3)C1)cn2-c1ccc(F)cc1C(=O)N(C)C(C)C (single isomer, unassigned) [Compound 191b] | 33 nM | 7000 nM |  |  |
| Cc1cncc2c1c(C[C@@H]1CCN(CC3CCC(O)CC3)C1)cn2-c1ccc(F)cc1C(=O)N(C)C(C)C (single isomer, unassigned) [Compound 205a] | 23 nM |  |  | 7000 nM |
| Cc1cncc2c1c(C[C@@H]1CCN(CC3CCC(O)CC3)C1)cn2-c1ccc(F)cc1C(=O)N(C)C(C)C (single isomer, unassigned) [Compound 205b] |  |  | 25 nM | 3200 nM |
| CC(=O)N1CCC([C@H](CO)N2CC[C@@H](Cc3cn(-c4ccc(F)cc4C(=O)N(C)C(C)C)c4cncc(C)c34)C2)CC1 (single isomer, unassigned) [Compound 206a] | 13 nM | 6600 nM |  |  |
| CC(=O)N1CCC(CN2CC[C@@H](Cc3cn(-c4ccc(F)cc4C(=O)N4CCC5CC54)c4cncc(C)c34)C2)CC1 (single isomer, unassigned) [Compound 311a] | 18 nM | 7700 nM |  |  |
| CC(=O)N1CCC(CN2CC[C@@H](Cc3cn(-c4ccc(F)cc4C(=O)N4CCC5CC54)c4cncc(C)c34)C2)CC1 (single isomer, unassigned) [Compound 311b] |  |  | 35 nM | > 15000 nM |
| COCCN(C)CCCC(C(C)C)N1CC[C@@H](Cc2cn(-c3ccc(F)cc3C(=O)N(C)C(C)C)c3cncc(Cl)c23)C1 (stereo partly drawn) [Compound 3] | 4 nM | 1100 nM |  |  |
| COCCN(C)CCCC(C(C)C)N1CC[C@H](Cc2cn(-c3ccc(F)cc3C(=O)N(C)C(C)C)c3cncc(Cl)c23)C1 (stereo partly drawn) [Compound 4] | 5 nM | 3000 nM |  |  |
| COCCN(C)CCCC(C(C)C)N1CCC(Cc2cn(-c3ccc(F)cc3C(=O)N(C)C(C)C)c3cncc(F)c23)C1 (stereo not drawn) [Compound 6] | 34 nM | 1500 nM |  |  |
| CNC(=O)[C@H]1CC[C@H](CN2CC(Cc3cn(-c4ccc(F)cc4C(=O)N(C)C(C)C)c4cncc(C)c34)C2)CC1 [Compound 74] | 4 nM | 5200 nM |  |  |
| CNC(=O)c1cncc(N2CCC(N3CC(Cc4cn(-c5ccc(F)cc5C(=O)N(C)C(C)C)c5cncc(C)c45)C3)CC2)n1 [Compound 75] | 9 nM | 2000 nM |  |  |
| CN=S(=O)(c1cc(F)ccc1-n1cc(CC2CCN(CC3CCOCC3)C2)c2c(C)cncc21)C(C)C (stereo not drawn) [Compound 77] | 90 nM | 5800 nM |  |  |
| Cc1cncc2c1c(CC1CN(CC3CCNC(=O)CC3)C1)cn2-c1ccc(F)cc1C(=O)N(C)C(C)C (stereo not drawn) [Compound 104] | 275 nM | > 15000 nM |  |  |
| CN=S(=O)(c1cc(F)ccc1-n1cc(CC2CCN(CC3CCN(C(C)=O)CC3)C2)c2c(C)cncc21)C(C)C (stereo not drawn) [Compound 128] | 146 nM | 7900 nM |  |  |
| Cc1cncc2c1c(CC1CN(CC3CCC(O)CC3)C1)cn2-c1ccc(F)cc1C(=O)N(C)C(C)C (stereo not drawn) [Compound 144] | 11 nM | 6500 nM |  |  |
| COC(=O)[C@H]1CC[C@@H](CN2CC[C@@H](Cc3cn(-c4ccc(F)cc4C(=O)N(C)C(C)C)c4cncc(C)c34)C2)CC1 [Compound 153] | 35 nM | 7900 nM |  |  |
| Cc1cncc2c1c(C[C@@H]1CCN(C[C@H]3CC[C@@H](C(=O)N4CCC4)CC3)C1)cn2-c1ccc(F)cc1C(=O)N(C)C(C)C [Compound 178] | 12 nM | 2900 nM |  |  |
| CNC(=O)[C@H]1CC[C@@H](CN2CC[C@@H](Cc3cn(-c4ccc(F)cc4C(=O)N(C)C(C)C)c4cncc(C)c34)C2)CC1 [Compound 185] | 23 nM | 11000 nM |  |  |
| CC(=O)N1CCC(CCN2CC[C@@H](Cc3cn(-c4ccc(F)cc4C(=O)N(C)C(C)C)c4cncc(C)c34)C2)CC1 [Compound 189] | 255 nM | 14400 nM |  |  |
